Data reported in patent US4269834A, “Copper complexes of isoquinazolines” (priority 1977, dated 1981).
Converted amounts (≈) assume the structure as drawn. Where two headings read alike, the source gives them in different places.

What was measured:
Format in all cases: cell-based
M. gallisepticum K514 = experiment: Development of resistance of M. gallisepticum K514 in the presence of copper ions (repeated MIC determinations); conditions: 100 μg/ml Cu^2+; procedure repeated 12 times
Procedure: It was investigated whether M. gallisepticum K514 develops a resistance against the compounds of Examples IX (1), IX (2), VIIIe and XIIb in the presence of copper ions. The MIC's in the presence of 100 μg/ml Cu^2+ were determined in the usual way. The test tubes containing the highest concentration of each compound in which a considerable growth of micro-organism still occurred, were used for inoculation in a next determination. […] Consequently, no resistance is developed.

Mycoplasma gallisepticum = experiment: Activity against Mycoplasma gallisepticum (minimum inhibiting concentration); conditions: for MIC with Cu / MIC: Table I; for MIC with Cu: media containing 50 μg/ml Cu^2+; for MIC: without added Cu; for MIC M. gall. with Cu: Table IVb, with Cu (50 μg/ml Cu^2+)
Excerpt: (§1) The following tables show some activities--expressed as minimum inhibiting concentration (MIC)--of the prepared compounds against various micro-organisms. The compounds are identified by reference to the Example in which they are described. When more than one compound is mentioned in an Example, they are distinguished by a number between parentheses, corresponding to their order of occurrence, for instance: VI (2) refers to the second compound prepared according to Example VI. The term "with Cu" refers to tests conducted in media containing 50 μg/ml Cu^2+.
(§2) The activities of the following compounds, not mentioned in the Examples, were also measured.

M. meleagridis = experiment: Activity against other Mycoplasma species: M. meleagridis (MIC); conditions: Table II, with Cu (50 μg/ml Cu^2+)
Excerpt: as §1

M. synoviae = experiment: Activity against other Mycoplasma species: M. synoviae (MIC); conditions: Table II, with Cu (50 μg/ml Cu^2+)
Excerpt: as §1

Spiroplasma citri = experiment: Activity against Spiroplasma citri (MIC); conditions: for MIC with Cu / MIC: Table III; for MIC with Cu: media containing 50 μg/ml Cu^2+; for MIC: without added Cu; for MIC S.Citri (with Cu): Table IVb, with Cu (50 μg/ml Cu^2+)
Excerpt: as §1, §2

[1] = tested on: M. Hyorhinis (tylosin resistent); experiment: Activity against other Mycoplasma species: M. Hyorhinis (tylosin resistent) (MIC); conditions: Table II, copper complexes, head 'with Cu' possibly not covering these columns
Excerpt: as §1

M. suipneumoniae = experiment: Activity against other Mycoplasma species: M. suipneumoniae (MIC); conditions: Table II, copper complexes, head 'with Cu' possibly not covering these columns
Excerpt: as §1

M. hyorhinis = experiment: Activity against other Mycoplasma species: M. hyorhinis (MIC); conditions: Table II, copper complexes, head 'with Cu' possibly not covering these columns
Excerpt: as §1

[2] = Mycoplasmoides gallisepticum, read-out: MIC

Structure (SMILES): CCc1cccc(-c2cc3ccccc3c(N)n2)n1.Cl [IX (2), 1-amino-3-(6-ethyl-2-pyridyl) isoquinoline hydrochloride]
- Resistance development: change of MIC (M. gallisepticum K514): without a significant increase of the MIC's
- MIC with Cu (Mycoplasma gallisepticum): 0.02 µg/mL
- MIC with Cu (M. meleagridis): 0.013 µg/mL
- MIC with Cu (M. synoviae): 0.05 µg/mL
- MIC with Cu (Spiroplasma citri): 0.2 µg/mL

Structure (SMILES): CCc1cccc2cc(-c3ccccn3)nc(N)c12 [VIIIf]
- MIC (Mycoplasma gallisepticum; [2]): > 100 µg/mL
- MIC with Cu (Mycoplasma gallisepticum): 0.05 µg/mL
- MIC with Cu (Spiroplasma citri): 0.4 µg/mL

Structure (SMILES): CCCCCCCCCCc1ccc2c(N)nc(-c3ccccn3)cc2c1 [VIIIg]
- MIC (Mycoplasma gallisepticum; [2]): 100 µg/mL (≈ 277 µM)
- MIC with Cu (Mycoplasma gallisepticum): 0.06 µg/mL
- MIC with Cu (Spiroplasma citri): 0.8 µg/mL

Structure (SMILES): Cc1ccc2ccc3ccc(C)nc3c2n1.Cc1ccc2ccc3ccc(C)nc3c2n1.O.O=[N+]([O-])[O-].O=[N+]([O-])[O-].[Cu+2] [VI (1), bis(2,9-dimethyl-1,10phenanthroline)cupric nitrate monohydrate]
- MIC (Mycoplasma gallisepticum): 0.4 µg/mL
- MIC [1]: 1 µg/mL
- MIC (M. suipneumoniae): 3 µg/mL
- MIC (M. hyorhinis): 3 µg/mL
- MIC (Spiroplasma citri): 50 µg/mL

Structure (SMILES): Nc1nc(-c2ccccn2)cc2ccccc12 [XIIc (1), 1-amino-3-(2-pyridyl)isoquinoline]
- MIC (Mycoplasma gallisepticum; [2]): > 100 µg/mL
- MIC with Cu (Mycoplasma gallisepticum): 0.4 µg/mL
- MIC with Cu (Spiroplasma citri): 0.2 µg/mL

Structure (SMILES): Cc1cccc(-c2cc3ccccc3c(C)n2)n1 [XIIb, 1-methyl-3(6-methyl-2-pyridyl)isoquinoline]
- Resistance development: change of MIC (M. gallisepticum K514): without a significant increase of the MIC's
- MIC with Cu (Mycoplasma gallisepticum): 0.03 µg/mL
- MIC with Cu (M. meleagridis): 0.05 µg/mL
- MIC with Cu (M. synoviae): 0.1 µg/mL
- MIC with Cu (Spiroplasma citri): 0.05 µg/mL

Structure (SMILES): CCc1nc(-c2ccccn2)cc2ccccc12 [XIIId, 1-ethyl-3-(2-pyridyl)isoquinoline]
- MIC with Cu (Mycoplasma gallisepticum): 0.06 µg/mL
- MIC with Cu (Spiroplasma citri): 0.2 µg/mL

Structure (SMILES): Cc1cccc(-c2cc3ccccc3c(N)n2)n1.Cl [IX (1), 1-amino-3-(6-methyl-2-pyridyl)-isoquinoline hydrochloride]
- Resistance development: change of MIC (M. gallisepticum K514): without a significant increase of the MIC's
- MIC (Mycoplasma gallisepticum; [2]): 100 µg/mL
- MIC with Cu (Mycoplasma gallisepticum): 0.03 µg/mL
- MIC with Cu (M. meleagridis): 0.025 µg/mL
- MIC with Cu (M. synoviae): 0.025 µg/mL
- MIC with Cu (Spiroplasma citri): 0.4 µg/mL

Structure (SMILES): Cc1nc(-c2ccccn2)cc2ccccc12 [XIIc (3), 1-methyl-3-(2-pyridyl)isoquinoline]
- MIC (Mycoplasma gallisepticum; [2]): 6 µg/mL (≈ 27.2 µM)
- MIC with Cu (Mycoplasma gallisepticum): 0.06 µg/mL
- MIC with Cu (Spiroplasma citri): 0.2 µg/mL

Structure (SMILES): Cc1cccc2cc(-c3ccccn3)nc(N)c12 [VIIIe]
- Resistance development: change of MIC (M. gallisepticum K514): without a significant increase of the MIC's
- MIC (Mycoplasma gallisepticum; [2]): 100 µg/mL (≈ 425 µM)
- MIC with Cu (Mycoplasma gallisepticum): 0.06 µg/mL
- MIC with Cu (M. meleagridis): 0.05 µg/mL
- MIC with Cu (M. synoviae): 0.1 µg/mL
- MIC with Cu (Spiroplasma citri): 0.1 µg/mL

Structure (SMILES): Nc1nc(-c2ccccn2)cc2c(Cl)cccc12 [VIIIh]
- MIC (Mycoplasma gallisepticum; [2]): > 100 µg/mL
- MIC with Cu (Mycoplasma gallisepticum): 0.05 µg/mL
- MIC with Cu (Spiroplasma citri): 0.4 µg/mL

Structure (SMILES): CCCCCCCCCCCc1c(-c2ccccn2)ncc2ccccc12 [D]
- MIC S.Citri (with Cu) (Spiroplasma citri): 0.8 µg/mL (≈ 2.22 µM)

Structure (SMILES): Cn1ccnc1-c1cc2ccccc2c(N)n1.Cn1ccnc1-c1cc2ccccc2c(N)n1.O=[N+]([O-])[O-].O=[N+]([O-])[O-].[Cu+2] [XVb (3), Bis[1-amino-3-(1-methyl-1H-imidazole-2-yl)isoquinoline]cupric nitrate]
- MIC with Cu (Mycoplasma gallisepticum): 1.5 µg/mL
- MIC (Mycoplasma gallisepticum): 12.5 µg/mL

Structure (SMILES): C=Cn1ccnc1-c1nc(N)c2ccccc2n1.O=[N+]([O-])[O-].O=[N+]([O-])[O-].[Cu+2] [XVIIIb (2), Mono[4-amino-2-(1-ethenyl-1H-imidazole-2-yl)quinazoline]cupric nitrate]
- MIC with Cu (Mycoplasma gallisepticum): 0.2 µg/mL
- MIC (Mycoplasma gallisepticum): 6 µg/mL

Structure (SMILES): Cc1cccc(-c2cc3ccccc3c(N)n2)n1.Cc1cccc(-c2cc3ccccc3c(N)n2)n1.O=[N+]([O-])[O-].[Cu+] [IIf, Bis[1-amino-3-(6-methyl-2-pyridyl)isoquinoline]cuprous nitrate]
- MIC with Cu (Mycoplasma gallisepticum): 0.03 µg/mL
- MIC (Spiroplasma citri): 25 µg/mL

Structure (SMILES): Cc1ccc2cc(-c3ccccn3)nc(N)c2c1 [VIIId]
- MIC (Mycoplasma gallisepticum; [2]): 1.5 µg/mL (≈ 6.38 µM)
- MIC with Cu (Mycoplasma gallisepticum): 0.2 µg/mL

Structure (SMILES): COc1ccc2ccc3ccc(OC)nc3c2n1 [H]
- MIC S.Citri (with Cu) (Spiroplasma citri): 1.5 µg/mL (≈ 6.24 µM)

Structure (SMILES): c1ccc(-c2ncc3ccccc3n2)nc1 [B]
- MIC M. gall. with Cu (Mycoplasma gallisepticum): 0.5 µg/mL

Structure (SMILES): Clc1ccc2nc(-c3ccccn3)ncc2c1 [C]
- MIC M. gall. with Cu (Mycoplasma gallisepticum): 0.8 µg/mL

Structure (SMILES): Nc1nc(-c2ccccn2)cc2ccccc12.Nc1nc(-c2ccccn2)cc2ccccc12.O=[N+]([O-])[O-].[Cu+] [IIc, Bis[1-amino-3-(2-pyridyl)isoquinoline]cuprous nitrate]
- MIC with Cu (Mycoplasma gallisepticum): 0.4 µg/mL
- MIC (Mycoplasma gallisepticum): 3 µg/mL

Structure (SMILES): Cc1cccc2c(N)nc(-c3ccccn3)cc12 [VIIIb]
- MIC (Mycoplasma gallisepticum; [2]): 1.5 µg/mL (≈ 6.38 µM)
- MIC with Cu (Mycoplasma gallisepticum): 0.2 µg/mL

Structure (SMILES): Nc1nc(-c2ccccn2)cc2ccc(Cl)cc12 [VIIIi]
- MIC with Cu (Mycoplasma gallisepticum): 0.2 µg/mL

Structure (SMILES): Cc1ccc2ccc3ccc(C)nc3c2n1 [A]
- MIC S.Citri (with Cu) (Spiroplasma citri): 0.03 µg/mL (≈ 0.144 µM)
